Assay results published in patent publication US12612368B2 (Remedy Plan, Inc., priority 2019, dated 2026).
Read-outs that look alike come from different tables or passages of the source.

Experiments:
NAMPT = target: T1, NAMPT (Homo sapiens, UniProt P43490); test: NAMPT Activity Assay (Abcam #ab221819); format: biochemical; details: purified NAMPT, two-step reaction, OD450 nm; percent inhibition vs no drug; compound concentration not stated
T1 construct: purchased Abcam ab221819

MV-4-11 cells = test: Cell viability in MV-4-11 cells (CellTiter Glo2); format: cell-based; details: Homo sapiens, MV4-11, 96 h, 8-point dose response, 4 days
Experimental: Approximately 10,000 MV-4-11 cells per well of a 96-well plate were treated with DMSO (no drug control) or each compound in Tables E1 and E2 in an 8-point dose response for 4 days, Cell viability was measured using CellTiter Glo2. The ICse of each compound was determined using CDD Vault.

[1] = CellTiter Glo2 (Table E2), read-out: MV-4-11 Cell Viability, MV-4-11 IC50
[2] = CellTiter Glo2 (Table E1), read-out: MV-4-11 IC50

T1 sequence (P43490 whole entry): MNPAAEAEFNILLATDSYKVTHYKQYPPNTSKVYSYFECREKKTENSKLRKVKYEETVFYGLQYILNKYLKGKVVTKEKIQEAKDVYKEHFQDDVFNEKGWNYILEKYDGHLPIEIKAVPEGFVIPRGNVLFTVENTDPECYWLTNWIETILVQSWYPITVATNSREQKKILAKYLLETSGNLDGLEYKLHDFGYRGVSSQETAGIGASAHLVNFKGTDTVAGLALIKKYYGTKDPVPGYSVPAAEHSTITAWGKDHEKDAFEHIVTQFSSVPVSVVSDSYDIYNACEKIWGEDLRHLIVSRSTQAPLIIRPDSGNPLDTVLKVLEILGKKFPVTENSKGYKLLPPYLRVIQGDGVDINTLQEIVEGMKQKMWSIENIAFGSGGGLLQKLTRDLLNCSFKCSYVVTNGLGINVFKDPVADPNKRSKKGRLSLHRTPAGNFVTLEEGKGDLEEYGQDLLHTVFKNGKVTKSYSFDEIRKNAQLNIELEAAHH

SMILES | NAMPT Inhibition Code (NAMPT) | IC50 (MV-4-11 cells; [1]) | IC50 (MV-4-11 cells; [2])
CC(=O)N(CC1CC1)c1ccc(-c2ccc(C(=O)NCc3ccccn3)cn2)cc1Cl [Compound I-698, 6-[4-[Acetyl(cyclopropylmethyl)amino]-3-chloro-phenyl]-N-(2-pyridylmethyl)pyridine-3-carboxamide] | A (A = <33% inhibition) | – | –
CC(=O)N(CCC(F)(F)F)c1ccc(-c2ccc(C(=O)NCc3cccnc3)cn2)cc1C [Compound I-601, 6-[4-[Acetyl(3,3,3-trifluoropropyl)amino]-3-methyl-phenyl]-N-(3-pyridylmethyl)pyridine-3-carboxamide] | B (B = ≥33 to <66% inhibition) | 62.7 nM | –
CC(=O)N(CCC(F)F)c1ccc(-c2ccc(C(=O)NCc3cccnc3)cn2)cc1 [Compound I-629, 6-[4-[Acetyl(3,3-difluoropropyl)amino]phenyl]-N-(3-pyridylmethyl)pyridine-3-carboxamide] | B (B = ≥33 to <66% inhibition) | 358 nM | –
COC(=O)c1cc(-c2ccc(C(=O)NCc3cccnc3)cn2)ccc1N(C)C(C)=O [Compound I-662, Methyl 2-[acetyl(methyl)amino]-5-[5-(3-pyridylmethylcarbamoyl)-2-pyridyl]benzoate] | C (C = ≥66% inhibition) | 36 nM | –
CC(=O)Nc1ccc(-c2ccc(C(=O)N(C)Cc3cccnc3C)cn2)cc1C#N [Compound I-483, 6-(4-Acetamido-3-cyano-phenyl)-N-methyl-N-[(2-methyl-3-pyridyl)methyl]pyridine-3-carboxamide] | A (A = <33% inhibition) | > 30000 nM | –
CCCN(C(=O)CC)c1ccc(-c2ccc(C(=O)NCc3cccnc3)cn2)cc1 [Compound I-410, 6-[4-[propanoyl(propyl)amino]phenyl]-N-(3-pyridylmethyl)pyridine-3-carboxamide] | B (B = ≥33 to <66% inhibition) | – | 119 nM
CCc1cc(-c2ccc(C(=O)NCc3cccnc3C)cn2)ccc1N(C)C(C)=O [Compound I-445, 6-[4-[acetyl(methyl)amino]-3-ethyl-phenyl]-N-[(2-methyl-3-pyridyl)methyl]pyridine-3-carboxamide] | A (A = <33% inhibition) | – | 3690 nM
CC(=O)N(CCC(F)F)c1ccc(-c2ccc(C(=O)NCc3cccnc3)cn2)cc1C [Compound I-639, 6-[4-[Acetyl(3,3-difluoropropyl)amino]-3-methyl-phenyl]-N-(3-pyridylmethyl)pyridine-3-carboxamide] | B (B = ≥33 to <66% inhibition) | 133 nM | –
CCc1cc(-c2ccc(C(=O)NCc3cccnc3)cn2)ccc1N(C)C(C)=O [Compound I-605, 6-[4-[Acetyl(methyl)amino]-3-ethyl-phenyl]-N-(3-pyridylmethyl)pyridine-3-carboxamide] | B (B = ≥33 to <66% inhibition) | 351 nM | –
CCC(=O)N(CCNC(=O)OC(C)(C)C)c1ccc(-c2ccc(C(=O)NCc3cccnc3)cc2)cc1 [Compound I-417, tert-butyl N-[2-[N-propanoyl-4-[4-(3-pyridylmethylcarbamoyl)phenyl]anilino]ethyl]carbamate] | A (A = <33% inhibition) | – | 105 nM
CC(=O)N(CCC(F)(F)F)c1ccc(-c2ccc(C(=O)NCc3cccnc3)cn2)cc1Cl [Compound I-604, 6-[4-[Acetyl(3,3,3-trifluoropropyl)amino]-3-chloro-phenyl]-N-(3-pyridylmethyl)pyridine-3-carboxamide] | B (B = ≥33 to <66% inhibition) | 33 nM | –
CCC(=O)N(CC(C)C)c1ccc(-c2ccc(C(=O)NCc3cccnc3)cn2)cc1 [Compound I-403, 6-[4-[isobutyl(propanoyl)amino]phenyl]-N-(3-pyridylmethyl)pyridine-3-carboxamide] | C (C = ≥66% inhibition) | – | < 11.7 nM
CC(=O)N(CC1CC1)c1ccc(-c2ccc(C(=O)NCc3cccnc3C)cn2)cc1C [Compound I-488, 6-[4-[Acetyl(cyclopropylmethyl)amino]-3-methyl-phenyl]-N-[(2-methyl-3-pyridyl)methyl]pyridine-3-carboxamide] | A (A = <33% inhibition) | 2820 nM | –
CCC(=O)N(C)c1ccc(-c2ccc(C(=O)NCc3ccc(C)nc3C)cn2)cc1 [Compound I-394, N-[(2,6-dimethyl-3-pyridyl)methyl]-6-[4-[methyl(propanoyl)amino]phenyl]pyridine-3-carboxamide] | A (A = <33% inhibition) | – | 3520 nM
CC(=O)N(CC1CC1)c1ccc(-c2ccc(C(=O)NCc3ccc(Cl)nc3)cn2)cc1Cl [Compound I-689, 6-[4-[Acetyl(cyclopropylmethyl)amino]-3-chloro-phenyl]-N-[(6-chloro-3-pyridyl)methyl]pyridine-3-carboxamide] | C (C = ≥66% inhibition) | 32.8 nM | –
CC(C)N(C(=O)C(F)F)c1ccc(-c2ccc(C(=O)NCc3cccnc3)cn2)cc1Cl [Compound I-611, 6-[3-chloro-4-[(2,2-difluoroacetyl)-isopropyl-amino]phenyl]-N-(3-pyridylmethyl)pyridine-3-carboxamide] | C (C = ≥66% inhibition) | 3.01 nM | –

SMILES | NAMPT Inhibition Code (NAMPT) | IC50 (MV-4-11 cells; [1]) | IC50 (MV-4-11 cells; [2])
CC(=O)N(C)c1ccc(-c2ccc(C(=O)NCc3cccnc3F)cn2)cc1C [Compound I-436, 6-[4-[acetyl(methyl)amino]-3-methyl-phenyl]-N-[(2-fluoro-3-pyridyl)methyl]pyridine-3-carboxamide] | – | – | 13800 nM
CCC(=O)N(C)c1ccc(-c2ccc(C(=O)Nc3nc(C)cs3)cn2)cc1 [Compound I-355, 6-[4-[methyl(propanoyl)amino]phenyl]-N-(4-methylthiazol-2-yl)pyridine-3-carboxamide] | A (A = <33% inhibition) | – | 2910 nM
CC(=O)N(c1ccc(-c2ccc(C(=O)NCc3cccnc3)cn2)cc1F)C(C)C [Compound I-626, 6-[4-[Acetyl(isopropyl)amino]-3-fluoro-phenyl]-N-(3-pyridylmethyl)pyridine-3-carboxamide] | C (C = ≥66% inhibition) | 23.7 nM | –
CCCCN(C(C)=O)c1ccc(-c2ccc(C(=O)NCc3cccnc3)cn2)cc1 [Compound I-411, 6-[4-[acetyl(butyl)amino]phenyl]-N-(3-pyridylmethyl)pyridine-3-carboxamide] | B (B = ≥33 to <66% inhibition) | – | 125 nM
CCC(=O)N(C)c1ccc(-c2ccc(C(=O)NCc3cccnc3C)cn2)cc1 [Compound I-392, 6-[4-[methyl(propanoyl)amino]phenyl]-N-[(2-methyl-3-pyridyl)methyl]pyridine-3-carboxamide] | A (A = <33% inhibition) | – | 6230 nM
CC(=O)N(CC1CC1)c1ccc(-c2ccc(C(=O)NCc3cccnc3C)cn2)cc1 [Compound I-500, 6-[4-[Acetyl(cyclopropylmethyl)amino]phenyl]-N-[(2-methyl-3-pyridyl)methyl]pyridine-3-carboxamide] | A (A = <33% inhibition) | 2280 nM | –
CC(=O)N(CC1CCC1)c1ccc(-c2ccc(C(=O)NCc3cccnc3)cn2)cc1 [Compound I-453, 6-[4-[acetyl(cyclobutylmethyl)amino]phenyl]-N-(3-pyridylmethyl)pyridine-3-carboxamide] | C (C = ≥66% inhibition) | 38 nM | –
CC(=O)N(C)c1ccc(-c2ccc(C(=O)NCc3cccnc3)cn2)cc1C [Compound I-425, 6-[4-[acetyl(methyl)amino]-3-methyl-phenyl]-N-(3-pyridylmethyl)pyridine-3-carboxamide] | A (A = <33% inhibition) | – | 1670 nM
CCC(=O)N(CCN)c1ccc(-c2ccc(C(=O)NCc3cccnc3)cn2)cc1C [Compound I-502, 6-[4-[2-aminoethyl(propanoyl)amino]-3-methyl-phenyl]-N-(3-pyridylmethyl)pyridine-3-carboxamide] | A (A = <33% inhibition) | 224 nM | –
CC(=O)N(CC1CC1)c1ccc(-c2ccc(C(=O)NCc3ccc(F)nc3)cn2)cc1Cl [Compound I-696, 6-[4-[Acetyl(cyclopropylmethyl)amino]-3-chloro-phenyl]-N-[(6-fluoro-3-pyridyl)methyl]pyridine-3-carboxamide] | C (C = ≥66% inhibition) | – | –
CC(=O)N(CC1CC1)c1ccc(-c2ccc(C(=O)NCc3ccc(C)nc3)cn2)cc1Cl [Compound I-697, 6-[4-[Acetyl(cyclopropylmethyl)amino]-3-chloro-phenyl]-N-[(6-methyl-3-pyridyl)methyl]pyridine-3-carboxamide] | C (C = ≥66% inhibition) | – | –
CC(=O)N(CC1CC1)c1ccc(-c2ccc(C(=O)Nc3cnc4[nH]ncc4c3)cn2)cc1Cl [Compound I-693, 6-[4-[Acetyl(cyclopropylmethyl)amino]-3-chloro-phenyl]-N-(1H-pyrazolo[3,4-b]pyridin-5-yl)pyridine-3-carboxamide] | B (B = ≥33 to <66% inhibition) | – | –
CC(=O)N(C)Cc1ccc(-c2ccc(C(=O)NCc3cccnc3)nc2)cc1 [Compound I-319, 5-[4-[[acetyl(methyl)amino]methyl]phenyl]-N-(3-pyridylmethyl)pyridine-2-carboxamide] | – | – | 10000 nM
CC(=O)N(C)c1ccc(-c2ccc(C(=O)NCc3cccnc3C)cn2)cc1C [Compound I-428, 6-[4-[acetyl(methyl)amino]-3-methyl-phenyl]-N-[(2-methyl-3-pyridyl)methyl]pyridine-3-carboxamide] | – | – | 3460 nM
CCN(C(C)=O)c1ccc(-c2ccc(C(=O)NCc3cccnc3C)cn2)cc1C [Compound I-429, 6-[4-[acetyl(ethyl)amino]-3-methyl-phenyl]-N-[(2-methyl-3-pyridyl)methyl]pyridine-3-carboxamide] | – | – | 4030 nM
